How the values were obtained:
[1] = tested on: JAK2, TYK2/p-STAT4 (Tyr693) activated by IL-12 in NK-92 cell line; test: IL-12-JAK2, TYK2/p-STAT4 (Tyr693) inhibition cellular assay; type: cell-based; settings: for IC50: NK92, 0.5 h, NK-92 cells, IL-12 40 ng/ml, 30 min, read-out: Cellular assay pSTAT4/IL-12 IC50; for Cellular assay Selectivity fold (TYK2/JAK1): pSTAT4/IL-12 vs pSTAT3/IL-6 cellular IC50
Excerpt: Assay C: IL-12-JAK2, TYK2/p-STAT4 (Tyr693) Inhibition IC50 Cellular Assay
To evaluate the inhibition effect of compounds disclosed herein on JAK2, TYK2/p-STAT4 (Tyr693) activated by IL-12 in NK-92 cell line, NK-92 cells were collected and washed 3 times by DPBS and resuspended in MEM-α(GIBCO,Cat #12561056) with 10% FBS (Gibco, Cat #10099, Lot #1891605), without IL-2 (R&D systems,Cat #202-IL), starved overnight. Cells were collected and resuspended in 1640 medium (phenol red free, Gibco, Cat #11835-030) with 0.1% BSA, and 12.5 μl/5×10^4/well cell suspension were seeded to the 96-well plate (Corning, Cat #3799). Then cells were treated with compounds diluted in 0.2% DMSO 1640 medium, at 37° C., 1 h. Dilution is done according to the following protocol: (1) make 500× compounds solution in DMSO from 5 mM by 4-fold dilution, total 8 doses were included; (3) make 2× compounds solution in assay medium by transferring 0.5 μl serial 500× stock solution into 125 μl assay medium; (4) 15 μl of 2× serial solution is added to cells and incubate at 37° C. for 1 h, the final compound conc. is 10000,2500,625,156.25,39,9.8,2.4 and 0.61 nM, respectively. After 1 h, cells were treated with 2.5 μl medium containing IL-12 at 37° C. (R&D systems, Cat #219-IL-005, final conc.40 ng/ml), 30 min. Following cells were lysed with 7.5 μl lysis buffer at RT, shaking on shaker for 1 h. 10 μL of cell lysate were transferred to a PE 384-well Proxiplate detection plate, and 5 μL of pre-mixed Alphascreen beads were added to each well. Covered the plate with a plate sealer, span 1000 rpm for 1 min, mix, Incubated overnight at room temperature. Read on BMG PheraStar with Alphascreen protocol. IC 50 values were calculated by fitting dependent data to the four-parameter logistic model using dotmatics software. The assay was performed by using AlphaLISA SureFire Ultra p-STAT4 (Tyr693) Assay Kit—High Volume (PE, Cat #ALSU-PST4-A-HV).

[2] = biological target: T1, JAK1-JH2 protein (aa 561-860, in-house) (Homo sapiens, UniProt P23458); test: JAK1-JH2 biochemical assay (HTRF, blocking of JAK1-JH2 protein with its probe); type: binding; settings: 1.17 nM recombinant JAK1-JH2, Probe 2
T1 construct: JAK1-JH2 protein (aa 561-860, in-house); made in house
Method: Assay B: JAK1-JH2 Biochemical Assay
Compounds disclosed herein were tested for blocking of JAK1-JH2 protein (aa 561-860, in-house) with its probe in an assay based on Homogeneous Time Resolved Fluorescence. Compound dilution is done according to the following protocol: (1) Prepare 500× compounds solution in DMSO from 500 uM by 5-fold dilution, total 10 doses were included; (2) Prepare 10× compounds solution in an assay buffer containing 20 mM HEPES, pH 7.5, 10 mM MgCl2, 0.005% BSA, 2 mM DTT, 0.015% Brij-35 by transferring 1 μl serial 500× stock solution into 49 μl assay buffer. 4 μL of 1.17 nM recombinant JAK1-JH2 protein was pre-incubated with 1 μl of 10×serial dilution of compounds at room temperature for 0.5 hour. […] The HTRF signals (ex337 nm, em620 nm/665 nm) were read on BMG PHERAstar FS instrument. The inhibition percentage of JAK1 interaction with its probe in presence of increasing concentrations of compounds was calculated based on the ratio of fluorescence at 615 nm to that at 665 nm. The IC50 for each compound was derived from fitting the data to the four-parameter logistic equation by Dotmatics.

[3] = biological target: T2, TYK2-JH2 (aa 575-869, in-house) protein (Homo sapiens, UniProt P29597); test: TYK2-JH2 biochemical assay (HTRF, blocking of TYK2-JH2 protein with its probe); type: binding; settings: for IC50: HTRF, 0.2 nM recombinant TYK2-JH2, Probe 1; for Biochemical assay Selectivity fold (TYK2/JAK1): TYK2-JH2 vs JAK1-JH2 biochemical IC50
T2 construct: TYK2-JH2 (aa 575-869, in-house) protein; made in house
Method: Assay A: TYK2-JH2 Biochemical Assay
Compounds disclosed herein were tested for blocking of TYK2-JH2 (aa 575-869, in-house) protein with its probe in an assay based on Homogeneous Time Resolved Fluorescence.
Compound dilution is done according to the following protocol: (1) Prepare 500× compounds solution in DMSO from 500 uM by 5-fold dilution, total 10 doses were included; (2) Prepare 10× compounds solution in an assay buffer containing 20 mM HEPES, pH 7.5, 10 mM MgCl2, 0.005% BSA, 2 mM DTT, 0.015% Brij-35 by transferring 1 μl serial 500× stock solution into 49 μl assay buffer. 4 μl of 0.2 nM recombinant TYK2-JH2 protein was pre-incubated with 1 μl of 10×serial dilution of compounds at room temperature for 0.5 hour. Then 5 μl of 10 nM in-house Probe 1 (6-((3,5-dimethylphenyl)amino)-8-((4,26-dioxo-30-((3aS,4S,6aR)-2-oxohexahydro-1H-thieno[3,4-d]imidazol-4-yl)-7,10,13,16,19,22-hexaoxa-3,25-diazatriacontyl)amino)imidazo[1,2-b]pyridazine-3-carboxamide, KD=10 nM), 5 μl Mab Anti-6His Tb cryptate Gold (Cat: 61HI2TLB, Cisbio Bioassays) and Streptavidin-XL665(Cat: 610SAXLB, Cisobio Bioassays) mixture were added to plate and further incubated at room temperature for 1 hour. The HTRF signals (ex337 nm, em620 nm/665 nm) were read on BMG PHERAstar FS instrument. The inhibition percentage of TYK2 interaction with its probe in presence of increasing concentrations of compounds was calculated based on the ratio of fluorescence at […]. The IC50 for each compound was derived from fitting the data to the four-parameter logistic equation by Dotmatics.

[4] = tested on: JAK1/p-STAT3(Tyr705) activated by IL-6 in TF-1 cell line; test: IL-6-JAK1/p-STAT3(Tyr705) inhibition cellular assay; type: cell-based; settings: Homo sapiens, 0.5 h; TF-1 cells, IL-6 50 ng/ml, 30 min; read-out: Cellular assay pSTAT3/IL-6 IC50
Excerpt: Assay D: IL-6-JAK1/p-STAT3(Tyr705) Inhibition IC50 Cellular Assay
To evaluate the inhibition effect of compounds disclosed herein on JAK1/p-STAT3(Tyr705) activated by IL-6 in TF-1 cell line, TF-1 cells were collected and washed 3 times by DPBS and resuspended in RPMI-1640 (phenol red free, Gibco, Cat #11835-030) with 0.1% FBS (Gibco, Cat #10099, Lot #1891605), without GM-CSF(R&D systems,Cat #215-GM-050), starved overnight. Cells were collected and resuspended in 1640 medium (phenol red free, Gibco, Cat #11835-030) with 0.1% BSA, and 12.5 μl/10×10^4/well cell suspension were seeded to the 96-well plate (Corning, Cat #3799). Then cells were treated with compounds diluted in 0.2% DMSO 1640 medium, at 37° C., 1 h. Dilution is done according to the following protocol: (1) make 500× compounds solution in DMSO from 5 mM by 4-fold dilution, total 8 doses were included; (3) make 2× compounds solution in assay medium by transferring 0.5 μl serial 500× stock solution into 125 μl assay medium; (4) 15 μl of 2× solution is added to cells and incubate at 37° C. for 1 h, the final compound conc. is 10000,2500,625,156.25,39,9.8,2.4 and 0.61 nM, respectively. After 1 h, cells were treated with 2.5 μl medium containing IL-6 at 37° C. (R&D systems, Cat #206-IL-010, final conc.50 ng/ml), 30 min. Following cells were lysed with 10 μl lysis buffer at RT, shaking on shaker for 1 h. 16 μL of cell lysate were transferred to a PE 384-well HTRF detection plate, and 4 μL of pre-mixed HTRF antibodies were added to each well. Covered the plate with a plate sealer, span 1000 rpm for 1 min, mix, Incubated overnight at room temperature. Read on BMG PheraStar with HTRF protocol (337 nm-665 nm-620 nm). IC 50 values were calculated by fitting dependent data to the four-parameter logistic model using dotmatics software. The assay was performed by using HTRF Phospho-STAT3(Tyr705) Cellular Assay Kit (Cisbio, Cat #62AT3PEG).

T2 sequence (P29597 575-869): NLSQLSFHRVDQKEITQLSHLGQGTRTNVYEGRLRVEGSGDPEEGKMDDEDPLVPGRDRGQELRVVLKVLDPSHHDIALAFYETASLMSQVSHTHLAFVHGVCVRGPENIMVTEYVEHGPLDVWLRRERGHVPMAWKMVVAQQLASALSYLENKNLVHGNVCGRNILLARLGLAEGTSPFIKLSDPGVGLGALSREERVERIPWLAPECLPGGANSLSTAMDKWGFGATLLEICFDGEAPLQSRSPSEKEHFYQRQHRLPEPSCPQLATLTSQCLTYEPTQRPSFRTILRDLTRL
T1 sequence (P23458 561-860): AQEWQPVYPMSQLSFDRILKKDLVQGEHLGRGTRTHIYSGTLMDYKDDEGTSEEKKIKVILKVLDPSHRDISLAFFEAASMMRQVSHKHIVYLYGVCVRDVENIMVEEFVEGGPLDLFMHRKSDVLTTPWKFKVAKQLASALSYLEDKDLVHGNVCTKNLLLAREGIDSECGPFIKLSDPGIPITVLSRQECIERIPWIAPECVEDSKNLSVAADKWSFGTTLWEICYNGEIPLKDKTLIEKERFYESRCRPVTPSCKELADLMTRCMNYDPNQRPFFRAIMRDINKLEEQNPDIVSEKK

Row | Structure (SMILES) | IC50 [1] | IC50 [2] | IC50 [3] | Biochemical assay Selectivity fold (TYK2/JAK1) [3] | IC50 [4] | Cellular assay Selectivity fold (TYK2/JAK1) [1]
1 | CCN(CC)C1CN(c2ccc3nc(Nc4cc(NC(=O)C5CC5)nnc4C(=O)NC)nn3c2)C1 [Example E22, 6-(cyclopropanecar-boxamido)-4-((6-(3-(diethylamino)azetidin-1-yl)-[1,2,4]triazolo [1,5-a]pyridin-2-yl)amino)-N-methylpyridazine-3-carboxamide] | 37.2 nM | 1.03 nM | 0.093 nM | 11 fold | 5120 nM | 138 fold
2 | CNC(=O)c1nnc(NC(=O)C2CC2)cc1Nc1nc2ccc(N3CCC(C4CN(C)C4)CC3)cn2n1 [Example P1, 6-(cyclopropanecarboxamido)-N-methyl-4-((6-(4-(1-methylazetidin-3-yl)piperidin-1-yl)-[1,2,4]triazolo[1,5-a]pyridin-2-yl)amino)pyridazine-3-carboxamide] | 29 nM | 1.4 nM | 0.039 nM | 36 fold | > 10000 nM | >344 fold
3 | CNC(=O)c1nnc(NC(=O)C2CC2)cc1Nc1nc2c(F)cc(N3CCC3)cn2n1 [Example N2, 4-((6-(azetidin-1-yl)-8-fluoro-[1,2,4]triazolo [1,5-a]pyridin-2-yl)amino)-6-(cyclopropanecarboxamido)-N-methylpyridazine-3-carboxamide] | 14 nM | 1.28 nM | 0.063 nM | 20 fold | 9640 nM | 688 fold
4 | CNC(=O)c1nnc(NC(=O)C2CC2)cc1Nc1nc2ccc(N3CC(CC(F)F)C3)cn2n1 [Example E4, 6-(cyclopropanecar-boxamido)-4-((6-(3-(2,2-difluoroethyl)azetidin-1-yl)-[1,2,4]triazolo[1,5-a]pyridin-2-yl)amino)-N-methylpyridazine-3-carboxamide] | 10 nM | 1.5 nM | 0.044 nM | 34 fold | 5400 nM | 540 fold
5 | CNC(=O)c1nnc(NC(=O)C2CC2)cc1Nc1nc2cc(OC)c(N3CCC3)cn2n1 [Example B1, 4-((6-(azetidin-1-yl)-7-methoxy-[1,2,4]triazolo[1,5-a]pyridin-2-yl)amino)-6-(cyclopropanecarboxamido)-N-methylpyridazine-3-carboxamide] | 3530 nM | 2.03 nM | 0.936 nM | 2 fold | > 10000 nM | >3 fold

More lines, main results first:

Row | IC50 [1] | IC50 [2] | IC50 [3] | Biochemical assay Selectivity fold (TYK2/JAK1) [3] | IC50 [4] | Structure (SMILES) | Cellular assay Selectivity fold (TYK2/JAK1) [1]
6 | 68.4 nM | 1.21 nM | 0.099 nM | 12 fold | > 10000 nM | CNC(=O)c1nnc(NC(=O)C2CC2)cc1Nc1nc2ccc(OC3CN(C4CCOC4)C3)cn2n1 (stereo not drawn) [Example D1, 6-(cyclopropanecarboxamido)-N-methyl-4-((6-((1-(tetrahydrofuran-3-yl)azetidin-3-yl)oxy)-[1,2,4]triazolo[1,5-a]pyridin-2-yl)amino)pyridazine-3-carboxamide] | >146 fold
7 | 68.8 nM | 1.2 nM | 0.08 nM | 15 fold | > 10000 nM | CNC(=O)c1nnc(NC(=O)C2CC2)cc1Nc1nc2ccc(OC3CN(S(C)(=O)=O)C3)cn2n1 [Example C3, 6-(cyclopropanecarboxamido)-N-methyl-4-((6-((1-(methylsulfonyl)azetidin-3-yl)oxy)-[1,2,4]triazolo[1,5-a]pyridin-2-yl)amino)pyridazine-3-carboxamide] | >145 fold
8 | 42 nM | 2.78 nM | 0.077 nM | 36 fold | > 10000 nM | CNC(=O)c1nnc(NC(=O)C2CC2)cc1Nc1nc2ccc(N3CCC(N4CC(N(C)C)C4)CC3)cn2n1 [Example E21, 6-(cyclopropanecar-boxamido)-4-((6-(4-(3-(dimethylamino)azetidin-1-yl)piperidin-1-yl)-[1,2,4]triazolo [1,5-a]pyridin-2-yl)amino)-N-methylpyridazine-3-carboxamide] | >238 fold

From patent publication US12606556B2, “TYK-2 inhibitor” (BEIGENE, LTD., priority 2020, dated 2026)
